Common to all, as to format: in vivo, Wistar Rat
Assay [1] has as its system liver fibrosis by CCl4. In words: Hydroxyproline assay, CCl4 liver fibrosis, colchicine dose (Examples 1-2). The settings on record: for Hydroxyproline: CCl4 0.4 g/kg rats. The method, then: (§1) Male Wistar Rat [about 150 g, 4 to 5-week old]
An administration plan of carbon tetrachloride (CCl4) and colchicine used in this experiment is as follows:
(1) Carbon tetrachloride: Intraperitoneal administration of 0.4 g/kg·bw, administered 3 times per week for 10 weeks • (2) Colchicine: Oral administration of 10, 50, 100 μg/kg·bw, once daily for 10 weeks
(§2) For this experiment, each group was classified as follows, and one group was used by 12 rats.
(3) CCl4-administered group [0.4 g/kg]
(4) CCl4+Colchicine [10 μg/kg]
(5) CCl4+Colchicine [50 μg/kg]
(6) CCl4+Colchicine [100 μg/kg]
The following items were measured to confirm the enhancement of the efficacy for treating liver fibrosis. Fibrosis index items were measured at 10 weeks.
(1) Fibrosis index item: hydroxyproline
Hydroxyproline assay was performed for each group to confirm the levels of […] accumulation in the liver.

In assay [2] the test system is fibrin accumulation in the liver (CCl4). The settings on record: DDB 25 mg/kg alone; CCl4 0.4 g/kg rats. As for the experimental part:
as §1
(§3) An administration plan of carbon tetrachloride (CCl4), silymarin, colchicine, and biphenyldimethyl dicarboxylate (DDB) used in this experiment is as follows:
(§4) (1) Carbon tetrachloride: Intraperitoneal administration of 0.4 g/kg·bw, administered 3 times per week for 10 weeks
(§5) (2) Silymarin: Oral administration of 10, 30, 50 mg/kg·bw, administered once a day for 10 weeks
(§6) (3) Colchicine: Oral administration of 10 μg/kg·bw, administered once a day for 10 weeks
(§7) (4) Biphenyldimethyl dicarboxylate (DDB): Oral administration of 10, 20, 25 mg/kg·bw, administered once a day for 10 weeks
(§8) (5) UDCA: Oral administration of 30 mg/kg·bw, administered once a day for 10 weeks
as §2
(§9) (4) CCl4+DDB [25 mg/kg] administered group
(§10) (5) CCl4+Colchicine [10 μg/kg]+DDB [25 mg/kg] administered group
(§11) (6) CCl4+Colchicine [10 μg/kg]+DDB [20 mg/kg] administered group
(§12) (7) CCl4+Colchicine [10 μg/kg]+DDB [10 mg/kg] administered group
(§13) (8) CCl4+Silymarin [50 mg/kg] administered group
(§14) (9) CCl4+Colchicine [10 μg/kg]+Silymarin [50 mg/kg] administered group
(§15) (10) CCl4+Colchicine [10 μg/kg]+Silymarin [30 mg/kg] administered group
(§16) (11) CCl4+Colchicine [10 μg/kg]+Silymarin [10 mg/kg] administered group
(12) CCl4+Colchicine [10 μg/kg]+UDCA [30 mg/kg] administered group […]

The test system of assay [3] is liver damage caused by CCl4. Description: Blood and serum levels (albumin, ALP, ALT, AST, total protein) in CCl4-administered rats (Examples 3, 4-1 to 4-3). As for the experimental part:
as §1, §3, §4, §5, §6, §7, §8, §2, §9, §10, §11, §12, §13, §14, §15, §16
(12) CCl4+Colchicine [10 μg/kg]+UDCA [30 mg/kg] administered group
Serum items were measured at 4 weeks and 10 weeks, and histological items were measured at 10 weeks.
(1) Serum enzyme items: Albumin, total protein concentration, ALT, AST, ALP, etc.
(§17) At this time, the dose of colchicine administered was all the same at 10 μg/kg.
as §17, §17

Assay [4] relates to liver tissue of CCl4-administered rats. In words: Liver histopathological examination (H&E staining) (Example 4-5). The following applies: DDB [25 mg] alone, 10 weeks. More on the design: key to Fatty necrosis / Ballooning degeneration / Fatty change / Fibrosis: 0 point for no disease (NAD); 1 point for mild symptoms; 2 points for moderate symptoms; 3 points for severe symptoms. The method, then:
as §1, §3, §4, §2
The following items were measured to confirm the enhancement of the efficacy for the treatment of liver disease (hepatitis, liver fibrosis, etc.). Serum items were measured at 4 weeks and 10 weeks, and histological items were measured at 10 weeks.
(2) Liver tissue Histology: H&E staining
In each group, when the pathological characteristics for fatty necrosis, ballooning, fatty change, and fibrosis may be identified according to severity of disease, it was evaluated by assigning 0 point for no disease (NAD), 1 point for mild symptoms, 2 points for moderate symptoms, and 3 points for severe symptoms.

[5] abbreviates: DDB 25 mg/kg alone, CCl4 rats, serum.

With `COc1cc2c(c(OC)c1OC)-c1ccc(OC)c(=O)cc1[C@@H](NC(C)=O)CC2` [Colchicine, colchicine], the figures for the Hydroxyproline in assay [1] (colchicine 10 μg/kg oral once daily 10 weeks), in assay [1] (colchicine 50 μg/kg oral once daily 10 weeks) and in assay [1] (colchicine 100 μg/kg oral once daily 10 weeks) were 320.12 ± 13.32 μg/g of liver, 313.33 ± 12.50 μg/g of liver and 302.25 ± 10.25 μg/g of liver, respectively. The “fibrin (hydroxyproline assay), in words” value in assay [1] (colchicine-administered group vs CCl4, Table 1) was “significant reduction effect of fibrin”.
In the case of `COC(=O)c1cc(OC)c2c(c1-c1c(C(=O)OC)cc(OC)c3c1OCO3)OCO2` [DDB, biphenyldimethyl dicarboxylate], the Hydroxyproline in assay [2] is listed as 317.74 ± 9.24 μg/g of liver. In assay [3] (setting [5]), this molecule yielded an ALP of 1428.90 ± 681.53 U/L, an ALT of 1543.09 ± 408.03 U/L, an AST of 1642.24 ± 764.93 U/L and an Albumin of 2.13 ± 0.09 g/dL. In assay [3] (setting [5]), this molecule displayed a Total protein of 5.35 ± 0.28 g/dL. Also, the “ALP (Alkaline phosphatase) level, in words” value in assay [3] (vs CCl4 administration, Tables 2 and 4) is listed as “the level was increased”. Moreover, the “Albumin level, in words” value in assay [3] (vs level reduced by CCl4, Tables 2-4) is given as “tended to be recovered”. In assay [3] (vs value reduced by CCl4, Tables 2-4), the “Total protein, in words” value was “tended to be recovered”. In assay [4], this molecule showed a Ballooning degeneration of 3, a Fatty change of 1, a Fatty necrosis of 1 and a Fibrosis of 2. In addition, the “Total Score” value in assay [4] turned out to be 7.

For the origin of these results see patent US20210137858A1, “COMBINATION FORMULATION CONTAINING COLCHICINE FOR TREATMENT OR ENHANCING THE THERAPY OF LIVER DISEASE” (priority 2019, published 2021).
